# Literature values, collected in patent publication US20230046963A1, “METHOD FOR DYEING KERATINOUS MATERIAL, COMPRISING THE USE OF AN ORGANOSILICON COMPOUND, A DYEING COMPOUND AND A PRE-TREATMENT AGENT” (Henkel AG & Co. KGaA, priority 2019, published 2023).
# Details: 25° C.
Compound,solubility in water,solubility in water (in words)
"O=S(=O)([O-])c1ccc(N=Nc2c(O)ccc3ccccc23)cc1.[Na+] [Acid Orange 7, sodium salt of 4-[(2-hydroxy-1-naphthyl)azo]benzenesulfonate]",more than 7 g/L,
"Nc1cc(S(=O)(=O)[O-])cc2cc(S(=O)(=O)[O-])c(N=Nc3ccccc3)c(O)c12.[Na+].[Na+] [Acid Red 33, disodium salt of 5-amino-4-hydroxy-3-(phenylazo)-naphthalene-2,7-disulphonate]",2.5 mg/mL,
"O=C([O-])c1c(Cl)c(Cl)c(Cl)c(Cl)c1-c1c2c(Br)cc(=O)c(Br)c-2oc2c(Br)c(O)cc(Br)c12.O=C([O-])c1c(Cl)c(Cl)c(Cl)c(Cl)c1-c1c2c(Br)cc(=O)c(Br)c-2oc2c(Br)c(O)cc(Br)c12.[Na+].[Na+] [Acid Red 92, disodium salt of 3,4,5,6-tetrachloro-2-(1,4,5,8-tetrabromo-6-hydroxy-3-oxoxanthen-9-yl)benzoic acid]",greater than 10 g/L,
"O=C([O-])C1=NN(c2ccc(S(=O)(=O)[O-])cc2)C(=O)C1N=Nc1ccc(S(=O)(=O)[O-])cc1.[Na+].[Na+].[Na+] (centres unmarked) [Acid Yellow 23, trisodium salt of 4,5-dihydro-5-oxo-1-(4-sulfophenyl)-4-((4-sulfophenyl)azo)-1H-pyrazole-3-carboxylic acid]",,readily soluble in water
"mixture of the sodium salts of mono- and disulfonic acids of 2-(2-quinolyl)-1H-indene-1,3(2H)-dione [Acid Yellow 3]",20 mg/mL,
